Laboratory results: US20240325565A1, “COMBINATION TREATMENT FOR SOLID TUMORS INCLUDING A STING AGONIST AND A CCR2 ANTAGONIST” (University of Pittsburgh - Of the Commonwealth System of …, priority 2023, published 2024)

How the values were obtained:
[1] = cited from earlier work
[2] = tested on: Panc02 tumor tissues; experiment: Bulk RNA-Seq of Panc02 tumor tissues; assay type: in vivo, mice
Description: Bulk RNA-Seq Analysis. The Panc02 tumor-bearing mice were intravenously injected with saline, GEM and PGEM once every three days for 3 times, respectively. One day after last injection, the tumors were harvested for RNA sequencing (RNA-seq), which was performed by the Health Sciences Sequencing Core at Children's Hospital at University of Pittsburgh. RNA-Seq libraries were sequenced as 75-bp paired-end reads at a depth of ˜73-77 million reads per sample. Reads were mapped to the mouse genome (GRCm38) using STAR Aligner 2.6.1a. Gene expression quantification and differential expression analysis was performed on Saline, GEM, and PGEM treated tumor samples using RSEM 1.3.1 and Cuffdiff of Cufflinks 2.2.1. Volcano plots were generated to show the overall differential expression between pairwise comparisons among these three groups, where the x-axis indicates the log-transformed fold changes (log 2FC) and the y-axis indicates the corresponding negative log-transformed p-values (−log10(p-value)). The Gene Set Enrichment Analysis (GSEA), via GSEA software available from Broad Institute, Inc. of Cambridge, MA, was further performed based on the gene lists ranked by the log 2FC among three groups.

[3] = tested on: cGAS in Panc02 cells; experiment: Picogreen staining and immunofluorescence for cGAS-bound micronuclei; assay type: cell-based, Murine; conditions: compared with control and PVD-treated groups
Description: (§1) Immunofluorescence Microscopy. Panc02 cells were seeded on chamber slides and treated with saline, free GEM, PGEM micelles, and PVD micelles, respectively. For all immunofluorescence staining, cells were washed in PBS, fixed in 4% formaldehyde/PBS for ten minutes at room temperature (RT) and permeabilized in 0.25% Triton/PBS for 20 minutes at RT. Blocking was performed in 5% BSA/0.1% Triton/PBS for 30 minutes, followed by incubation with primary antibodies in blocking buffer for one hour at 37° C. incubator. Cells were washed in PBS and incubated with secondary antibodies in blocking buffer for one hour at RT, followed by washing and mounting on coverslips using ProLong Gold antifade reagent with DAPI. Cells were imaged using confocal microscope at the specified magnification. For picogreen-cGAS staining, cells were incubated with pico488 DNA quantification reagent for 2 hours at 37° C. For γH2AX staining, permeabilized cells were blocked in Serum-free DAKO Protein Block for one hour at RT. Cells were incubated in primary antibody (γH2AX, 1:500; anti-HA, 1:100) in DAKO antibody (available from Agilent of Santa Clara, CA) diluent at 4° C. overnight on a rocker platform.

[4] = tested on: STING pathway in Panc02 cells; experiment: Western blotting of STING pathway-related proteins; assay type: cell-based, Murine
Description: Western blotting. Western blotting was performed to evaluate the STING activation in cultured Panc02 cells. Cells grown in six-well plates with 80% confluency were treated with saline, free GEM, PGEM micelles, and PVD micelles, respectively, for 48 h. Then, the cultured Panc02 cells were washed twice with pre-cooled PBS and lysed in Pierce™ RIPA buffer (available from Thermo Fischer Scientific of Pittsburgh, PA) for 30 min in 4° C. Protein concentrations were determined by BCA method, and equal amounts of total protein lysate were resolved on a 10% SDS-PAGE and subsequently transferred to a nitrocellulose membrane. Membranes were blocked with 5% non-fat milk in PBS for 1 h prior to incubation with various antibodies targeting IRF3, P-IRF3, STING, P-STING, and Cyclin B dissolved in PBST (DPBS with 0.1% Tween 20) overnight at 4° C. The blots were washed with PBST and then probed with goat antirabbit IgG for 1 h at room temperature followed by chemiluminescence detection by SuperSignal™ West Fento Maximum Sensitivity Substrate (available from Thermo Fischer Scientific). Q-Actin or GAPDH was used as a loading control.

[5] = tested on: Panc02 cells; experiment: γH2AX foci immunofluorescence (DNA double strand break marker); assay type: cell-based, Murine
Description: as §1

[6] = tested on: Panc02 cells; experiment: qRT-PCR in cultured Panc02 cells; assay type: cell-based, Murine
Description: qRT-PCR. Panc02 cells grown in six-well plates were treated with saline, free GEM, PGEM micelles, and PVD micelles, respectively, for 48 h. Then, RNA was isolated using the PureLinkTM RNA kit (InvitrogenTM available from Thermo Fisher Scientific) and reverse transcribed using the High-Capacity cDNA Reverse Tran--scription Kit (available from Applied Biosystems/Thermo Fisher Scientific) based on the manufacturer's guidelines. qPCR was performed using Power SYBR Green PCR MasterMix (Applied Biosystems) in a QuantStudio 3 Real-Time PCR System (Applied Biosystems). In a separate study, Panc02 cells grown in six-well plates were treated with PGEM for 72 h. One day after adding PGEM into the wells, control siRNA (siNC) or STING siRNA ([…]) was added into the wells without changing the medium, and incubated for 48 h. Then the RNA was extracted, and CCL2, CCL7 and ISG15 expression levels were detected as described above. In another study, whether CCL2, CCL7 and ISG15 were induced by type I IFNs was evaluated. Panc02 cells grown in six-well plates were treated with PGEM for 72 h. One day after adding PGEM into the wells, isotype control (10 μg/mL) or IFNAR1 antibody (10 μg/mL) was added into the wells without changing the medium, and incubated for 48 h. Then, the RNA was extracted subjected to qRT-PCR analysis of the mRNA expression levels of CCL2, CCL7 and ISG15.

[7] = tested on: Panc02 tumors; experiment: In vivo anti-tumor study in Panc02 tumor-bearing mice; conditions: i.v. three times at an interval of three days; for inhibition of Panc02 tumor growth (therapeutic efficacy): GEM: 20 mg/kg, PF: 10 mg/kg; for anti-tumor activity of PGEM loaded with CCR2 inhibitor: 10 mg/kg for CCR2 inhibitor
Description: In vivo anti-tumor study. The antitumor effect was evaluated in syngeneic mice bearing Panc02 tumors. In brief, 1×10^5 Panc02 cells were inoculated into the right flank of female C57BL/6 mice. When the tumor volume reached ˜50 mm^3, the mice started to receive different treatments. […]. In a separate study, the synergistic tumor inhibition effect of PF and GEM was evaluated by intravenously injecting saline, free GEM, free PF, free GEM+PF, PGEM, and PGEM/PF (GEM: 20 mg/kg; PF: 10 mg/kg), respectively, into the Panc02 tumor-bearing mice. These treatments were also performed three times at an interval of three days. The tumor volumes and body weights were continuously monitored. At the endpoint, the tumor tissues and major organs were fixed in 10% formalin and dehydrated. Then they were embedded in paraffin and sectioned, followed by H&E staining with for histopathological examination. The biochemical parameters, including WBCs, RBCs, Hb, AST, ALT, and creatinine, were evaluated for safety profiles. The effect of PGEM/PF on the inhibition of lung metastasis of pancreatic cancer was also evaluated. A pulmonary metastasis model of pancreatic cancer was established by injecting KPC cells via tail vein. On day 10 following tumor cell inoculation, mice were i.v. administered with saline, free GEM+PF, PGEM, and PGEM/PF, respectively. The treatment was performed at day 10, day 14, and Day 18, and the mice were sacrificed at day 20.

[8] = tested on: Panc02 cells; experiment: MTT cytotoxicity assay; assay type: cell-based, Murine; conditions: 96 h
Description: MTT assay. Panc02 cells were seeded in 96-well plates at a density of 1500 cells/well with 100 μL of complete culture medium (DMEM with 10% FBS and 1% streptomycin/penicillin). After overnight incubation, Panc02 cells were treated with various concentrations of saline, free PF, free BMS, free Bind, free GEM, free GEM+PF, PGEM, PGEM/PF, PGEM/BMS, and PGEM/Bind micelles. After 96 h, the cytotoxicity was determined by MTT assay. The absorbance of each well was measured at 590 nm and the cell viability was determined via the following formula: (ODtreated−ODblank)/(ODcontrol−ODblank)×100%.

[9] = Release of PF from PGEM/PF micelles (dialysis method); assay type: physicochemical; conditions: 37° C., PBS with 0.5% tween 80, 24 h
Description: Release of PF from PGEM/PF micelles. The release of PF from PGEM/PF micelles was examined at 37° C. via a dialysis method with free PF as a control. PF-loaded PGEM micelles was transferred into a dialysis bag with MWCO of 3500 Da, which was then incubated in 50 mL PBS with 0.5% (w/v) tween 80 under gentle shaking. At specific time intervals, all the PBS solution outside the dialysis bag was withdrawn and replaced with another 50 mL of fresh solution. The PF concentrations in the solution were determined by HPLC.

[10] = tested on: Panc02 tumors; experiment: Quantification of tumor-infiltrating immune cells by flow cytometry; assay type: in vivo, mice; conditions: i.v. every three days for three times
Description: Quantification of tumor-infiltrating lymphocytes by flow cytometry. Syngeneic C57BL/6 mice bearing Panc02 tumors received various treatments (saline, free GEM, free PF, free GEM+PF, PGEM, and PGEM/PF) via i.v. administration every three days for three times. Tumors were collected at 24 h following the last treatment. Single cell suspensions were prepared according to previous literature. See Wan, Z., et al., Science Advances, 7 (50), eabj4226 (2021). Then the cells were stained with various antibodies (Table 1) for flow cytometry analysis. For intracellular cytokine (IFN-γ and GZB) staining, cells were stimulated with PMA (100 ng/mL) and lonomycin (500 ng/mL) for 5 h in the presence of Monensin. Cells were fixed/permeabilized using the BD Cytofix/Cytoperm kit prior to cell staining. Then, the fixed/permeabilized cells were suspended in residual Intracellular Staining Perm Wash Buffer and a predetermined optimum concentration of fluorophore-conjugated antibody of interest was added (e.g. PE anti-IFN-γ) for 30 minutes. The data were analyzed using FlowJo software (available from Becton Dickenson & Company pf Ashland, OR). The percentage of cytokine (IFN-γ or GZB)-producing NK and CD8^+ T cells was gated under total NK and CD8^+ T cells, respectively, which represents the percentage of total NK or CD8^+ T that are IFN-γ or GZB positive.

[11] = Cuffdiff P<0.05, i.v. once every three days for 3 times

| Structure (SMILES) | bioavailability [1] | solubility [1] | genes significantly downregulated [2, 11] | genes significantly upregulated [2, 11] | CCL2 and CCL7 gene expression (RNAseq) ([2]; mouse, in vivo) | ISG15 expression (RNAseq) ([2]; mouse, in vivo) | signals of cGAS-bound micronuclei [3] | IRF3 and STING phosphorylation ([4]; 48 h) | normalized protein levels of pIRF3 and pSTING ([4]; compared with saline and PVD polymer-treated groups) | formation of γH2AX foci [5] | CCL2, CCL7 and ISG15 expression [6] | inhibition of Panc02 tumor growth (therapeutic efficacy) [7] | anti-tumor activity of PGEM loaded with CCR2 inhibitor [7] | anti-tumor activity of PGEM loaded with CCR2 inhibitor ([7]; listed as PF) | cytotoxicity [8] | PF diffused out of dialysis bag within 24 h [9] | percentage of MDSCs and TAMs in tumors [10] |
| --- | --- | --- | --- | --- | --- | --- | --- | --- | --- | --- | --- | --- | --- | --- | --- | --- | --- |
| CC(=O)N[C@@H]1C[C@H](NC(C)(C)C)CC[C@@H]1N1CC[C@H](Nc2ncnc3cc(C(C)(C)C)nn23)C1=O [BMS813160, N-[(1R,2S,5R)-5-[(1,1-dimethylethyl)amino]-2-[(3S)-3-[[7-(1,1-dimethylethyl)pyrazolo[1,5-a]-1,3,5-triazin-4-yl]amino]-2-oxo-1-pyrrolidinyl]cyclohexyl]-acetamide] | low bioavailability | poor solubility |  |  |  |  |  |  |  |  |  |  |  |  |  |  |  |
| Nc1ccn([C@@H]2O[C@H](CO)[C@@H](O)C2(F)F)c(=O)n1 [GEM, Gemcitabine] |  |  | 489 genes | 416 genes | upregulation | upregulated | significantly increased | significantly induced | significantly higher | induced | similarly induced | modest effect |  |  |  |  |  |
| O=C(NCC(=O)N1CC[C@H](N[C@H]2CC[C@@](O)(c3ccc(-c4ncccn4)cn3)CC2)C1)c1cccc(C(F)(F)F)c1 [PF-04136309, N-(2-((S)-3-(((1r,4S)-4-hydroxy-4-(5-(pyrimidin-2-yl)pyridin-2-yl)cyclohexyl)amino)pyrrolidin-1-yl)-2-oxoethyl)-3-(trifluoromethyl)benzamide] | low bioavailability | poor solubility |  |  |  |  |  |  |  |  |  | modest effect | best combination effect | best results | slight cytotoxicity | over 95% | decrease |
